The values below come from patent publication US8791132B2, “Compounds and methods for treatment of hypertension” (Medivation Technologies, Inc., priority 2011, dated 2014).

The target in assay [1] is T1, human recombinant adrenergic α2B receptor (Homo sapiens, UniProt P18089).
T1 construct: expressed in transfected cells; host or cells: CHO-K1
T1 sequence (P18089 1-450): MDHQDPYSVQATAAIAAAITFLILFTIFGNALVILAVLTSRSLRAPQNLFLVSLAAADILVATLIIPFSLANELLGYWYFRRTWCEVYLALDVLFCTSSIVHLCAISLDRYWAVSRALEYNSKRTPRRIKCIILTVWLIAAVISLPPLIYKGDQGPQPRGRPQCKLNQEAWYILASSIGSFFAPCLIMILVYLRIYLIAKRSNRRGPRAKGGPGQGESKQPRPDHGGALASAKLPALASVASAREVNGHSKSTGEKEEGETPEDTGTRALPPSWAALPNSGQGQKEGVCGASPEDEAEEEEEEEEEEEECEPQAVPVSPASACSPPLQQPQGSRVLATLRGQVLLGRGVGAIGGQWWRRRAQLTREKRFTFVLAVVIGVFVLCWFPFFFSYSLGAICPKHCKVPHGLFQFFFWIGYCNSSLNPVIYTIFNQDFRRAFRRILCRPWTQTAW
The assay is described as follows: Radioligand binding, adrenergic α2B ([3H]Rauwolscine). In outline: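 Readout: percent inhibition of specific [3H]Rauwolscine binding, measured by filtration and counting. Conditions: CHO-K1 cell-expressed receptor, 2.5 nM radioligand, 60 min, 25° C, Tris-HCl pH 7.4 buffer with MgCl2, EDTA, BSA. Non-specific binding: 10 μM Prazosin.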

In assay [2] the target is T2, human recombinant adrenergic α2A receptor (Homo sapiens, UniProt P08913).
T2 construct: expressed in transfected cells; host or cells: insect Sf9 cells
T2 sequence (P08913 1-465): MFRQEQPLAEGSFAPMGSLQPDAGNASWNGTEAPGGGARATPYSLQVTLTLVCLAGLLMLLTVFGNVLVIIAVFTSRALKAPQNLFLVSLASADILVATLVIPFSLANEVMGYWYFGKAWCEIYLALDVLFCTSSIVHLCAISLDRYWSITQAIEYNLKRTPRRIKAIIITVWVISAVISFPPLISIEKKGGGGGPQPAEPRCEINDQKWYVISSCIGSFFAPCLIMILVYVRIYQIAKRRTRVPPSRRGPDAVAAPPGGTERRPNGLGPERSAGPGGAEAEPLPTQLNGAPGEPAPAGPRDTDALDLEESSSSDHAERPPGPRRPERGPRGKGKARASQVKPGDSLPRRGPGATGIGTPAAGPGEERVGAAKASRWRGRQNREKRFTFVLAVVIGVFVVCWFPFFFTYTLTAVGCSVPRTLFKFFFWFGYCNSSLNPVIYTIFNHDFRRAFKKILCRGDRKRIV
The assay is described as follows: Radioligand binding, adrenergic α2A ([3H]MK-912). In outline: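 In 50 mM Tris-HCl (pH 7.4) containing 12.5 mM MgCl2 and 2 mM EDTA, Sf9-expressed receptor was exposed to test compound plus 1 nM [3H]MK-912 at 25 °C for 60 min. Specific binding, corrected using 10 μM WB-4101, was quantified by filtration and counting and expressed as percent inhibition.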

For assay [3], the target named is T3, rat adrenergic α1B receptor (Rattus norvegicus, UniProt P15823).
T3 construct: rat adrenergic α1B receptor obtained from Wistar Rat liver; from tissue; host or cells: Wistar rat liver
T3 sequence (P15823 1-515): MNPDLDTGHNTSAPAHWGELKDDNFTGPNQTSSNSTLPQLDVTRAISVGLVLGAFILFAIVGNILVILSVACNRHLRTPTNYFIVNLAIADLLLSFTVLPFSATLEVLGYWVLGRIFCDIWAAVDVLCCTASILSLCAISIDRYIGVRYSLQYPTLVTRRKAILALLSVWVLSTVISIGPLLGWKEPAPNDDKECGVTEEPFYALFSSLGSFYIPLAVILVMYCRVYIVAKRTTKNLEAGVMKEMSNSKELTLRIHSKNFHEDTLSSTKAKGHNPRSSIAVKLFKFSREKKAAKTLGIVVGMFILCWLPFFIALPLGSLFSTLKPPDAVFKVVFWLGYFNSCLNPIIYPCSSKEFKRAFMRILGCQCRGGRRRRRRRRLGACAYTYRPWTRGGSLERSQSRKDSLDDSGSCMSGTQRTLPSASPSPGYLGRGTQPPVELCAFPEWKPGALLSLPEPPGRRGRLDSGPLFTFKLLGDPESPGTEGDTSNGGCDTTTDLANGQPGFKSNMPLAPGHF
The assay is described as follows: Radioligand binding, adrenergic α1B ([3H]Prazosin). In outline:
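Incubation ran 60 min at 25 °C in Tris-HCl buffer (50 mM, pH 7.4, 0.5 mM EDTA) with Wistar rat liver α1B receptor. 10 μM phentolamine set non-specific binding.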

In assay [4] the target is T4, human recombinant adrenergic α1D receptor (Homo sapiens, UniProt P25100).
T4 construct: expressed in transfected cells; host or cells: HEK-293
T4 sequence (P25100 1-572): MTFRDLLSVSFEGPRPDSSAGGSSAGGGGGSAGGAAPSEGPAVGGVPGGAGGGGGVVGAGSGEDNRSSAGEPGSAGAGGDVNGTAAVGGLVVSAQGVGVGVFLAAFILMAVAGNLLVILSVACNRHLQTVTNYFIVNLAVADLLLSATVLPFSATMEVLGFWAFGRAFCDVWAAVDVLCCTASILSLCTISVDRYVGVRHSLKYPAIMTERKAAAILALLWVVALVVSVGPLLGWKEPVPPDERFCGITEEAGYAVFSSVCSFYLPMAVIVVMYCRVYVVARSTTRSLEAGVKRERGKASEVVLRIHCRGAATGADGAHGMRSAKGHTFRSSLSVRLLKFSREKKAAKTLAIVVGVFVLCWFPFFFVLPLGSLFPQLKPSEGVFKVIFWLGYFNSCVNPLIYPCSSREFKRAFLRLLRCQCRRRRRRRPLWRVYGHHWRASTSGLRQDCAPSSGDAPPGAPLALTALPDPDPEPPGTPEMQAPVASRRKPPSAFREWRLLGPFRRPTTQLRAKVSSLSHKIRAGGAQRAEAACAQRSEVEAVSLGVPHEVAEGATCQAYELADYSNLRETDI
The assay is described as follows: Radioligand binding, adrenergic α1D ([3H]Prazosin). As to the method:
Compounds were incubated with 0.6 nM [3H]Prazosin for 60 min at 25° C. Non-specific binding was estimated in the presence of 10 μM phentolamine. Receptor proteins were filtered and washed, the filters were then counted to determine [3H]Prazosin specifically bound. […] Biochemical assay results are presented as the percent inhibition of specific binding in Table B1.

[5] abbreviates: read-out: Percentage inhibition of ligand binding, Adrenergic α2B (0.1 μM), compound at 0.1 μM, [3H]Rauwolscine, repeat datapoints each shown.
Setting [6] is: read-out: Percentage inhibition of ligand binding, Adrenergic α2A (0.1 μM), compound at 0.1 μM, [3H]MK-912, repeat datapoints each shown.
[7] abbreviates: read-out: Percentage inhibition of ligand binding, Adrenergic α1B (0.1 μM), compound at 0.1 μM, [3H]Prazosin, repeat datapoints each shown.
Where [8] appears, read: read-out: Percentage inhibition of ligand binding, Adrenergic α1D (0.1 μM), compound at 0.1 μM, [3H]Prazosin, repeat datapoints each shown.
The mark [9] stands for this setting: 0.1 μM compound, read-out: Percentage inhibition of ligand binding, Adrenergic α2B.
Where [10] appears, read: 0.1 μM compound, read-out: Percentage inhibition of ligand binding, Adrenergic α2A.
[11] abbreviates: 0.1 μM compound, read-out: Percentage inhibition of ligand binding, Adrenergic α1B.
The mark [12] stands for this setting: 0.1 μM compound, read-out: Percentage inhibition of ligand binding, Adrenergic α1D.

Like-named read-outs stand apart in the source and are kept apart here.

`C=C(Cn1c2c(c3cc(Cl)ccc31)CN(C)CC2)c1ccncc1` [compound 116]: the inhibition (in general, the change of the read-out against control, counted positive when it falls) at 0.1 µM is 75% in assay [1] (setting [5]), 22% in assay [2] (setting [6]), 23% in assay [3] (setting [7]) and 26% in assay [4] (setting [8]).

`Cc1ccc(C#Cn2c3c(c4cc(Cl)ccc42)C2CCC(C3)N2C)cn1` (centres unmarked) [compound 95]: the inhibition at 0.1 µM in assay [1] (setting [5]) turned out to be 105%; in assay [2] (setting [6]), 9%; in assay [3] (setting [7]), 52%; in assay [4] (setting [8]), 29%.

Regarding `Cc1cc(-c2sccc2C)c2c(c1)c1c(n2CCc2ccc(C)nc2)CCN(C)C1` [compound 327], the inhibition at 0.1 µM is -4% in assay [1] (setting [9]), 58% in assay [2] (setting [10]), -5% in assay [3] (setting [11]) and 4% in assay [4] (setting [12]).

With `Cc1csc(C2=C(n3c4c(c5cc(C)ccc53)CN(C)CC4)CCC2)c1` [compound 304, 2,8-dimethyl-5-(2-(4-methylthiophen-2-yl)cyclopent-1-enyl)-2,3,4,5-tetrahydro-1H-pyrido[4,3-b]indole], the inhibition at 0.1 µM stood at 81% in assay [1] (setting [9]), 79% in assay [2] (setting [10]), 15% in assay [3] (setting [11]) and 27% in assay [4] (setting [12]).

Turning to `Cc1ccc2c(c1)c1c(n2C2=C(c3ccc(C)nc3)CCC2)CCN(C)C1` [II-82, 2,8-dimethyl-5-(2-(6-methylpyridin-3-yl)cyclopent-1-enyl)-2,3,4,5-tetrahydro-1H-pyrido[4,3-b]indole], the inhibition at 0.03 µM in assay [1] (0.03 μM compound, read-out: Percentage inhibition of ligand binding, Adrenergic α2B) came out at 35%. Also, in assay [1] (0.1 μM compound, 0.1 µM), the “Percentage inhibition of ligand binding, Adrenergic α2B” value came out at 53%. The inhibition at 0.1 µM is 48% in assay [1] (setting [9]), 45% in assay [2] (setting [10]), 13% in assay [3] (setting [11]) and 23% in assay [4] (setting [12]). For the same compound, the Ki (in general, a measure of affinity in units of concentration, obtained from inhibition or displacement) in assay [1] (read-out: Ki α2B) was found to be 26.8 nM.

As for `C/C(=C\n1c2c(c3cc(Cl)ccc31)CN(C)CC2)c1cccc(S(C)(=O)=O)c1` [compound 296], the inhibition at 0.1 µM in assay [1] (setting [9]) is 70%; in assay [2] (setting [10]), 60%; in assay [3] (setting [11]), 20%; in assay [4] (setting [12]) it was 33%.

As for `COc1ccc(C(C)(O)Cn2c3c(c4cc(C)ccc42)CN(C)CC3)cc1` (centres unmarked) [254a], the inhibition at 0.1 µM in assay [1] (setting [9]) came out at 85%; in assay [2] (setting [10]) it was 58%; in assay [3] (setting [11]) it was 75%; in assay [4] (setting [12]), 36%.

Take `Cc1ccc(CCn2c3c(c4ccc(Cl)cc42)CN(C)CC3)cn1` [compound 315]: the inhibition at 0.1 µM came to 48% in assay [1] (setting [9]), 59% in assay [2] (setting [10]), 4% in assay [3] (setting [11]) and 3% in assay [4] (setting [12]).

With `Cc1ccc(C#Cn2c3c(c4cc(C)ccc42)CN(C)CC3)nc1` [compound 328, 2,8-dimethyl-5-(5-methyl-pyridin-2-ylethynyl)-2,3,4,5-tetrahydro-1H-pyrido[4,3-b]indole], the inhibition at 0.1 µM turned out to be 93% in assay [1] (setting [9]), 76% in assay [2] (setting [10]), 95% in assay [3] (setting [11]) and 80% in assay [4] (setting [12]).

`Cc1ccc(CCn2c3c(c4cc(Cl)c(Cl)cc42)CN(C)CC3)cn1` [compound 322]: the inhibition at 0.1 µM turned out to be 49% in assay [1] (setting [9]), 58% in assay [2] (setting [10]), 59% in assay [3] (setting [11]) and 22% in assay [4] (setting [12]).

On to `C/C(=C/n1c2c(c3cc(Cl)ccc31)CN(C)CC2)c1cc(F)c(F)cc1Cl` [compound 252], for which the inhibition at 0.1 µM was found to be 52% in assay [1] (setting [9]), 66% in assay [2] (setting [10]), 36% in assay [3] (setting [11]) and 13% in assay [4] (setting [12]).

Regarding `C=C(Cn1c2c(c3cc(C)ccc31)CN(C)CC2)c1ccncc1` [compound 121], the inhibition at 0.1 µM is 88% in assay [1] (setting [5]), 16% in assay [2] (setting [6]), 6% in assay [3] (setting [7]) and 44% in assay [4] (setting [8]).

Turning to `Cc1cc(Br)c2c(c1)c1c(n2CCc2ccc(C)nc2)CCN(C)C1` [II-39], the inhibition at 0.1 µM was -14% in assay [1] (setting [9]), 27% in assay [2] (setting [10]), 16% in assay [3] (setting [11]) and 13% in assay [4] (setting [12]).

Consider `C/C(=C\n1c2c(c3cc(C)ccc31)CN(C)CC2)c1c(C)noc1C` [compound 110], for which the inhibition at 0.1 µM in assay [1] (setting [5]) stood at 62%; in assay [2] (setting [6]), 27%; in assay [3] (setting [7]), 5%; in assay [4] (setting [8]), 35%.

As to `Cc1ccc2c(c1)c1c(n2CCc2cccc(C)n2)CCN(C)C1` [compound 297, 2,8-dimethyl-5-[2-(6-methyl-pyridin-2-yl)-ethyl]-2,3,4,5-tetrahydro-1H-pyrido[4,3-b]indole], the inhibition at 0.1 µM in assay [1] (setting [9]) came out at 46%; in assay [2] (setting [10]), 50%; in assay [3] (setting [11]), 69%; in assay [4] (setting [12]) it was 36%.

In the case of `C/C(=C\n1c2c(c3cc(Cl)ccc31)CCN(C)CC2)c1ccc(Cl)cc1Cl` [compound 229], the inhibition at 0.1 µM in assay [1] (setting [5]) came to 90%; in assay [2] (setting [6]), 53%; in assay [3] (setting [7]), 17%; in assay [4] (setting [8]), 8%.

As for `C/C(=C\n1c2c(c3cc(C)ccc31)CN(C)CC2)c1cncc2ccccc12` [compound 292], the inhibition at 0.1 µM in assay [1] (setting [9]) was found to be 104%; in assay [2] (setting [10]) it was 58%; in assay [3] (setting [11]) it was 13%; in assay [4] (setting [12]) it was 23%.
